Experimental data: patent US7572826B2, “Thiophene-carboxamide derivatives and their use as inhibitors of the enzyme IKK-2” (AstraZeneca AB, priority 2003, dated 2009)

Columns and labels:
[1] = test system: human peripheral blood mononuclear cells (PBMCs); assay: Inhibition of LPS-induced TNFα production by PBMCs; type: cell-based; conditions: PBMC, inhibition of LPS-stimulated TNFα production
Procedure: The effect of test compounds on nuclear factor kappa B (NFκB) activation in cells was assessed by measuring inhibition of tumour necrosis factor alpha (TNFα) production by human peripheral blood mononuclear cells (PBMCs) stimulated by bacterial lipopolysaccharide (LPS).
Human blood (250 ml), anticoagulated with heparin, was collected from healthy volunteers. Aliquots of blood (25 ml) were layered on 20 ml Lymphoprep (Nycomed) in 50 ml polypropylene centrifuge tubes. The tubes were centrifuged (Sorval RT600B) at 2,500 rpm for 30 minutes. The cloudy layer containing PBMCs was collected with a fine tipped Pasteur pipette, transferred into 8 clean polypropylene centrifuge tubes (approximately 10 ml per tube) and diluted to 50 ml with phosphate-buffered saline (PBS). These tubes were centrifuged at 2,000 rpm for 8 minutes. PBS (10 ml) was added to each cell pellet and the cells were gently re-suspended. The cells were pooled in 4 centrifuge tubes, PBS was added to each tube to make the volume up to 50 ml and the tubes were centrifuged at 1,400 rpm for 8 minutes. The cell pellets were again re-suspended in 10 ml PBS, pooled in 2 centrige tubes, the volume made up to 50 ml with PBS and the tubes centrifuged at 900 rpm for 10 minutes.
The final cell pellets were gently re-suspended in 10 ml tissue culture medium (RPMI containing 1% heat-inactivated human serum, L-glutamine and penicillin and streptomycin), combined into 1 tube and the volume made up to 30 ml with RPMI medium. The cells were counted and the cell suspension was diluted to 2.6×10^6 cells/ml.
Test compounds were dissolved in DMSO to 10 mM and diluted 1 in 250 (40 μM) with RPMI medium. The compounds were then serially diluted 1 in 3 with 0.4% DMSO in RPMI medium. Aliquots of test compound dilutions (50 μl) were transferred to the wells of a 96-well plate. Control wells contained 0.4% DMSO in RPMI instead of compound.
Aliquots of the cell suspension (100 μl) were added to each well and the plates incubated at 37° C. for 30 minutes. 50 μl of 40 μg/ml LPS (Sigma, LA130) was added to wells to stimulate TNFα production by the cells and the plates were incubated overnight at 37° C. RPMI medium (50 μl) was added to negative control wells instead of LPS. The final incubation volume was 200 μl.
Plates were centrifuged for 4 minutes at 1,200 rpm and supernatants were removed for measurement of TNFα concentration. Viability of the remaining cell pellet was measured using WST-1 reagent (Boehringer Mannheim, 1044807). […] The absorbance at 450 nm was then measured using a 96-well plate spectrophotometer.
TNFα in the supernatants (freshly harvested or stored frozen at −20° C.) were measured using an enzyme-linked immunosorbant assay (ELISA). […]

[2] = molecular target: T1, IKK-2 (Homo sapiens, UniProt O14920); assay: IKK-2 filter kinase assay; type: biochemical; conditions: 1 μM ATP, 1-53 GST-IκB substrate, read-out: Inhibition of IKK-2 IC50
T1 sequence (O14920 1-756): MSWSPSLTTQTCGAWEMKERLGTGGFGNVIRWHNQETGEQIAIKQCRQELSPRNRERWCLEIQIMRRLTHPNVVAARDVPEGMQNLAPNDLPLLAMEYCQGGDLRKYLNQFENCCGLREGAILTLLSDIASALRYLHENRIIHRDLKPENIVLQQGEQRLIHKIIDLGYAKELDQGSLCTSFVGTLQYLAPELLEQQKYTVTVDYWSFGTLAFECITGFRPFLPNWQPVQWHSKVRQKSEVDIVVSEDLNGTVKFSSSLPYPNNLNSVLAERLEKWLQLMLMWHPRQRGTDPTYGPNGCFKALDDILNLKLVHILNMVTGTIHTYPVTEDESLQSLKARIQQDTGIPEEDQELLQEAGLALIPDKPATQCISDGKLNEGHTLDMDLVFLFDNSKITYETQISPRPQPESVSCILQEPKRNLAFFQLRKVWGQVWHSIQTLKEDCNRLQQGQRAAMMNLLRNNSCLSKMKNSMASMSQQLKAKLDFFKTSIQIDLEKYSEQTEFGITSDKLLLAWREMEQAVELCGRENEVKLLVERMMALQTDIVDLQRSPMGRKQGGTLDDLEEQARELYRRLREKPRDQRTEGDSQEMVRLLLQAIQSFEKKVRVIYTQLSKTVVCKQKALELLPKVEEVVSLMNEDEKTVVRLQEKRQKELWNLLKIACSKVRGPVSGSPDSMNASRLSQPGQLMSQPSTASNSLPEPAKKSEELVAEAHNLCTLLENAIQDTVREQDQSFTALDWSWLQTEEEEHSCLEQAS
Procedure: The test compounds were dissolved to 10 mM in dimethylsulphoxide (DMSO). The compounds were then diluted 1 in 40 in kinase buffer (50 mM Tris, pH 7.4 containing 0.1 mM EGTA, 0.1 mM sodium orthovanadate and 0.1% β-mercaptoethanol). 1 in 3 serial dilutions were made from this solution with 2.5% DMSO in kinase buffer. 20 μl of compound dilution was added to wells of a 96 well plate in duplicate.
10 μl of a mixture of magnesium acetate, unlabelled ATP, and ^33P-labelled ATP was added to each well made such that the final concentration was 10 mM magnesium acetate, 1 μM ATP and 0.1 μCi ^33P ATP. […] The final reaction volume was 50 μl.
The kinase reactions were incubated at 21° C. for 80 minutes and the reaction stopped by precipitating the protein by the addition of an equal volume (50 μl) of 20% trichloroacetic acid (TCA). The precipitate was allowed to form for 10 minutes and then filtered onto a GF/C unifilter 96 well plate. Each filter was washed twice with approximately 1 ml 2% TCA. The filter plate was dried at 30-40° C. for 60 minutes, 20 μl scintillant was added to each well and the plate sealed and radioactivity counted on a Packard Topcount microplate scintillation counter.

Row | IC50 [2] | SMILES | IC50 [1]
1 | 3.6 nM | NC(=O)Nc1sc(-c2ccc(CNCC(F)(F)F)cc2)cc1C(N)=O [Example 1] | 420 nM
2 | 13 nM | CN(C)Cc1ccc(-c2cc(C(N)=O)c(NC(N)=O)s2)cc1 [Example 5, 2-[(Aminocarbonyl)amino]-5-{4-[dimethylaminomethyl]phenyl}thiophene-3-carboxamide] | 120 nM
3 | 0.56 nM | NC(=O)Nc1sc(-c2ccc(CN(CCO)Cc3ccccc3)cc2)cc1C(N)=O [Example 61, 2-[(Aminocarbonyl)amino]-5-[4-{([N-benzyl-N-(2-hydroxyethyl)]amino)methyl}phenyl]thiophene-3-carboxamide] | 340 nM
4 | 66 nM | COCCN(C)Cc1ccc(-c2cc(C(N)=O)c(NC(N)=O)s2)cc1 [Example 56] | 450 nM
